Results published in the supplement of paper PMC10307832.

Tests used:
Assay in all cases: relative viability (nuclei count vs DMSO), 5 days (fraction); higher = more cells survive
201T = test system: 201T
Procedure, shortened: (§1)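 Relative viability is defined as nuclei in treated wells over nuclei in vehicle wells. Duplicate plates were run and medians reported. Lung cancer cell lines in 1536-well plates were dosed by pin tool one day after seeding, with one drug or with a fixed anchor-drug dose plus five library-drug doses (not always all listed) in √10 steps, and nuclei were counted after 5 days.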

EPLC-272H = test system: EPLC-272H
Procedure, shortened: as §1

H3255 = test system: H3255
Procedure, shortened: as §1

LCLC-103H = test system: LCLC-103H
Procedure, shortened: as §1

LOU-NH91 = test system: LOU-NH91
Procedure, shortened: as §1

NCI-H1355 = test system: NCI-H1355
Procedure, shortened: as §1

NCI-H1651 = test system: NCI-H1651
Procedure, shortened: as §1

NCI-H1666 = test system: NCI-H1666
Procedure, shortened: as §1

NCI-H1734 = test system: NCI-H1734
Procedure, shortened: as §1

NCI-H1792 = test system: NCI-H1792
Procedure, shortened: as §1

NCI-H1793 = test system: NCI-H1793
Procedure, shortened: as §1

NCI-H1915 = test system: NCI-H1915
Procedure, shortened: as §1

NCI-H1944 = test system: NCI-H1944
Procedure, shortened: as §1

NCI-H1975 = test system: NCI-H1975
Procedure, shortened: as §1

NCI-H2023 = test system: NCI-H2023
Procedure, shortened: as §1

NCI-H2342 = test system: NCI-H2342
Procedure, shortened: as §1

NCI-H2405 = test system: NCI-H2405
Procedure, shortened: as §1

NCI-H441 = test system: NCI-H441
Procedure, shortened: as §1

NCI-H647 = test system: NCI-H647
Procedure, shortened: as §1

RERF-LC-KJ = test system: RERF-LC-KJ
Procedure, shortened: as §1

SK-LU-1 = test system: SK-LU-1
Procedure, shortened: as §1

UMC-11 = test system: UMC-11
Procedure, shortened: as §1

Work on `COCC1(CO)C(=O)C2CCN1CC2` (stereo not given) [PRIMA-1MET] + Nc1nc2[nH]cc(CCc3ccc(C(=O)N[C@@H](CCC(=O)O)C(=O)O)cc3)c2c(=O)[nH]1 [Pemetrexed] (partner 0.2 µM) yielded a relative viability (201T; first compound 0.2 µM) of 0.302, a relative viability (201T; first compound 0.6325 µM) of 0.339 and a relative viability (201T; first compound 2 µM) of 0.332. It also gave a relative viability (201T; first compound 6.325 µM) of 0.346, a relative viability (201T; first compound 20 µM) of 0.328 and a relative viability (EPLC-272H; first compound 0.2 µM) of 0.35. It also gave a relative viability (EPLC-272H; first compound 0.6325 µM) of 0.403, a relative viability (EPLC-272H; first compound 2 µM) of 0.314 and a relative viability (EPLC-272H; first compound 6.325 µM) of 0.317. The relative viability (EPLC-272H; first compound 20 µM) was 0.138, the relative viability (H3255; first compound 0.2 µM) was 0.634 and the relative viability (H3255; first compound 0.6325 µM) was 0.458. It also gave a relative viability (H3255; first compound 2 µM) of 0.601, a relative viability (H3255; first compound 6.325 µM) of 0.567 and a relative viability (H3255; first compound 20 µM) of 0.534. The relative viability (LCLC-103H; first compound 0.2 µM) was 0.45, the relative viability (LCLC-103H; first compound 0.6325 µM) was 0.503 and the relative viability (LCLC-103H; first compound 2 µM) was 0.459. The relative viability (LCLC-103H; first compound 6.325 µM) was 0.499, the relative viability (LCLC-103H; first compound 20 µM) was 0.451 and the relative viability (LOU-NH91; first compound 0.2 µM) was 0.356. The relative viability (LOU-NH91; first compound 0.6325 µM) was 0.367, the relative viability (LOU-NH91; first compound 2 µM) was 0.405 and the relative viability (LOU-NH91; first compound 6.325 µM) was 0.4. For the same compound, the relative viability (LOU-NH91; first compound 20 µM) was 0.344, the relative viability (NCI-H1355; first compound 0.2 µM) was 1.02 and the relative viability (NCI-H1355; first compound 0.6325 µM) was 0.985. The relative viability (NCI-H1355; first compound 2 µM) was 1, the relative viability (NCI-H1355; first compound 6.325 µM) was 1.01 and the relative viability (NCI-H1355; first compound 20 µM) was 1.04. For the same compound, the relative viability (NCI-H1651; first compound 0.2 µM) was 0.641, the relative viability (NCI-H1651; first compound 0.6325 µM) was 0.192 and the relative viability (NCI-H1651; first compound 2 µM) was 0.542. The relative viability (NCI-H1651; first compound 6.325 µM) was 0.605, the relative viability (NCI-H1651; first compound 20 µM) was 0.651 and the relative viability (NCI-H1666; first compound 0.2 µM) was 0.949. The relative viability (NCI-H1666; first compound 0.6325 µM) was 0.824, the relative viability (NCI-H1666; first compound 2 µM) was 0.742 and the relative viability (NCI-H1666; first compound 6.325 µM) was 0.793. For the same compound, the relative viability (NCI-H1666; first compound 20 µM) was 0.814, the relative viability (NCI-H1734; first compound 0.2 µM) was 0.403 and the relative viability (NCI-H1734; first compound 0.6325 µM) was 0.416. For the same compound, the relative viability (NCI-H1734; first compound 2 µM) was 0.433, the relative viability (NCI-H1734; first compound 6.325 µM) was 0.407 and the relative viability (NCI-H1734; first compound 20 µM) was 0.0543. It also gave a relative viability (NCI-H1792; first compound 0.2 µM) of 0.713, a relative viability (NCI-H1792; first compound 6.325 µM) of 0.947 and a relative viability (NCI-H1792; first compound 20 µM) of 0.676. For the same compound, the relative viability (NCI-H1793; first compound 0.2 µM) was 0.964, the relative viability (NCI-H1793; first compound 0.6325 µM) was 0.803 and the relative viability (NCI-H1793; first compound 6.325 µM) was 1.09. It also gave a relative viability (NCI-H1793; first compound 20 µM) of 0.919, a relative viability (NCI-H1915; first compound 0.2 µM) of 0.54 and a relative viability (NCI-H1915; first compound 0.6325 µM) of 0.522. For the same compound, the relative viability (NCI-H1915; first compound 2 µM) was 0.466, the relative viability (NCI-H1915; first compound 6.325 µM) was 0.511 and the relative viability (NCI-H1915; first compound 20 µM) was 0.467. For the same compound, the relative viability (NCI-H1944; first compound 0.2 µM) was 0.738, the relative viability (NCI-H1944; first compound 0.6325 µM) was 0.555 and the relative viability (NCI-H1944; first compound 2 µM) was 0.535. The relative viability (NCI-H1944; first compound 6.325 µM) was 0.519, the relative viability (NCI-H1944; first compound 20 µM) was 0.655 and the relative viability (NCI-H1975; first compound 0.2 µM) was 0.31. It also gave a relative viability (NCI-H1975; first compound 0.6325 µM) of 0.266, a relative viability (NCI-H1975; first compound 2 µM) of 0.28 and a relative viability (NCI-H1975; first compound 6.325 µM) of 0.292. It also gave a relative viability (NCI-H1975; first compound 20 µM) of 0.282, a relative viability (NCI-H2023; first compound 0.2 µM) of 0.224 and a relative viability (NCI-H2023; first compound 0.6325 µM) of 0.23. For the same compound, the relative viability (NCI-H2023; first compound 2 µM) was 0.28, the relative viability (NCI-H2023; first compound 6.325 µM) was 0.237 and the relative viability (NCI-H2023; first compound 20 µM) was 0.147. It also gave a relative viability (NCI-H2342; first compound 0.2 µM) of 0.789, a relative viability (NCI-H2342; first compound 0.6325 µM) of 0.852 and a relative viability (NCI-H2342; first compound 6.325 µM) of 0.691. It also gave a relative viability (NCI-H2342; first compound 20 µM) of 0.753, a relative viability (NCI-H2405; first compound 0.2 µM) of 1.01 and a relative viability (NCI-H2405; first compound 0.6325 µM) of 0.986. For the same compound, the relative viability (NCI-H2405; first compound 6.325 µM) was 0.974, the relative viability (NCI-H2405; first compound 20 µM) was 0.0844 and the relative viability (NCI-H441; first compound 0.2 µM) was 0.24. It also gave a relative viability (NCI-H441; first compound 0.6325 µM) of 0.2, a relative viability (NCI-H441; first compound 2 µM) of 0.271 and a relative viability (NCI-H441; first compound 6.325 µM) of 0.274. It also gave a relative viability (NCI-H441; first compound 20 µM) of 0.204, a relative viability (NCI-H647; first compound 0.2 µM) of 0.19 and a relative viability (NCI-H647; first compound 0.6325 µM) of 0.152. For the same compound, the relative viability (NCI-H647; first compound 2 µM) was 0.19, the relative viability (NCI-H647; first compound 6.325 µM) was 0.173 and the relative viability (NCI-H647; first compound 20 µM) was 0.124. The relative viability (RERF-LC-KJ; first compound 0.2 µM) was 0.49, the relative viability (RERF-LC-KJ; first compound 0.6325 µM) was 0.484 and the relative viability (RERF-LC-KJ; first compound 2 µM) was 0.472. For the same compound, the relative viability (RERF-LC-KJ; first compound 6.325 µM) was 0.495, the relative viability (RERF-LC-KJ; first compound 20 µM) was 0.472 and the relative viability (SK-LU-1; first compound 0.2 µM) was 1.01. The relative viability (SK-LU-1; first compound 0.6325 µM) was 1.12, the relative viability (SK-LU-1; first compound 2 µM) was 1.01 and the relative viability (SK-LU-1; first compound 6.325 µM) was 0.955. It also gave a relative viability (SK-LU-1; first compound 20 µM) of 0.652, a relative viability (UMC-11; first compound 0.2 µM) of 0.866 and a relative viability (UMC-11; first compound 0.6325 µM) of 0.693. For the same compound, the relative viability (UMC-11; first compound 2 µM) was 0.836, the relative viability (UMC-11; first compound 6.325 µM) was 0.768 and the relative viability (UMC-11; first compound 20 µM) was 0.801.
